# Where “and” joins values, the source holds several entries; their conditions need not be identical. Equal entries are not always repeated.
# How the values were obtained:
# ICR mice [1] = assay: Phenylquinone-induced writhing model in mice (writhes counted in following 5-10 minute period); assay type: in vivo; details: for No. of Writhings, Individual: individual mice; for % Inhibition: relative to vehicle group
# Experimental: (§1) Testing on compound KRS-6-48 was carried out under contract by MDS Services—Taiwan Ltd. KRS-6-48 was evaluated for possible analgesic activity in the phenylquinone-induced writhing model in mice (Siegmund et al, 1957). A serial 2-fold dosage variance was used in the test, from 128 mg/kg to 1 mg/kg (8 doses in total). Groups of 3 male or female ICR mice weighing 22±2 g were employed. Variant doses (1, 2, 4, 8, 16, 32, 64 and 128 mg/kg) of test substances were administered intraperitoneally (IP). A vehicle of 2% Tween 80 in 0.9% NaCl was used for the intraperitoneal injection. The control group received vehicle alone. […] A reduction in the number of writhes by 50 percent or more (≧50%) relative to the vehicle-treated group indicated possible analgesic activity.
# Testing on compounds KRS-6-41, KRS-6-51, and KRS-6-71 was also carried out under contract by MDS Services—Taiwan Ltd. The study was designed to evaluate the effects of the compounds as analgesics in the phenylquinone-induced writhing assay described in detail in Example 10 (Siegmund et al, 1957).
# as §1, with “In each case, a” for “Testing on compound KRS-6-48 was carried out under contract by MDS Services—Taiwan Ltd. KRS-6-48 was evaluated for possible analgesic activity in the phenylquinone-induced writhing model in mice (Siegmund et al, 1957). A”
# ICR mice [2] = assay: Deaths and adverse signs observed in writhing-study mice; assay type: in vivo
# Experimental: as §1
# as §1, with “In each case, a” for “Testing on compound KRS-6-48 was carried out under contract by MDS Services—Taiwan Ltd. KRS-6-48 was evaluated for possible analgesic activity in the phenylquinone-induced writhing model in mice (Siegmund et al, 1957). A”
# human δ-opiate receptor = molecular target: T1, human δ-opiate receptor (Homo sapiens, UniProt P41143); assay: In vitro opiate receptor radioligand binding assay (MDS 260110); details: test compound 10 μM, read-out: Percentage Inhibition of Radioligand Binding
# T1 construct: purchased MDS Pharma Services 260110
# Experimental: (§2) To characterise the target specificity of the compounds, KRS-6-41, KRS-6-48 and KRS-6-51 were tested at a concentration of 10 μM for their ability to inhibit the binding of a radioligand to human δ-, κ-, or μ-opiate receptors in vitro using commercially available assays (MDS Pharma Services; assay catalogue numbers 260110, 260210 and 260410 respectively).
# human κ-opiate receptor = molecular target: T2, human κ-opiate receptor (Homo sapiens, UniProt P41145); assay: In vitro opiate receptor radioligand binding assay (MDS 260210); details: test compound 10 μM, read-out: Percentage Inhibition of Radioligand Binding
# T2 construct: purchased MDS Pharma Services 260210
# Experimental: as §2
# human μ-opiate receptor = molecular target: T3, human μ-opiate receptor (Homo sapiens, UniProt P35372); assay: In vitro opiate receptor radioligand binding assay (MDS 260410); details: test compound 10 μM, read-out: Percentage Inhibition of Radioligand Binding
# T3 construct: purchased MDS Pharma Services 260410
# Experimental: as §2
# ICR mice [3] = assay: Straub tail behaviour (indicator of CNS activity) in writhing-study mice; details: for Straub tail behaviour: any doses (1 to 128 mg/kg IP)
# ICR mice [4] = assay: Phenylquinone-induced writhing model in mice, KRS-6-98 study (writhes counted in following 10-15 minute period); assay type: in vivo; details: for Number of Writhings, Average / Number of Writhings, Individual / % Inhibition: 10-15 minute period; for Number of Writhings, Individual: individual mice; for % Inhibition: relative to vehicle group
# Experimental: Testing of compound KRS-6-98 was carried out under contract by MDS Pharma Services—Taiwan. The study was essentially the same as that set out in Examples 12 and 13, and was designed to evaluate the effect of the compound as an analgesic in the phenylquinone-induced writhing assay described in detail in Example 10 (Siegmund et al, 1957).
# A serial two-fold dosage variance was used in the test, from 128 mg/kg to 1 mg/kg (8 doses in total). Twenty six groups of 3 male or female ICR mice weighing 22±2 g were employed. The variant doses of the test substance were administered intraperitoneally (IP). A vehicle of 2% Tween 80 in 0.9% NaCl was used for the intraperitoneal injection. The control group received the vehicle alone. […] A reduction of the number of writhes by 50% or more (≧50%) relative to the vehicle-treated group indicate a possible analgesic activity.
# T1 sequence (P41143 whole entry): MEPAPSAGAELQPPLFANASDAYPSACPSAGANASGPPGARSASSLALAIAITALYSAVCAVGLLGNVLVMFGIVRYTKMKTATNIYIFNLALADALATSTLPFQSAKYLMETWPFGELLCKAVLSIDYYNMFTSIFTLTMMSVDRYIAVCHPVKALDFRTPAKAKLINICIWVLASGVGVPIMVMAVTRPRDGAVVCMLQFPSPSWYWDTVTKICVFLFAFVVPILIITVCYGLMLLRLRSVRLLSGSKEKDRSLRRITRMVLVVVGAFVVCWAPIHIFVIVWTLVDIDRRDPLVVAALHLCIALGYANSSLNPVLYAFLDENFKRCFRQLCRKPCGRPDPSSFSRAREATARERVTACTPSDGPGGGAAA
# T3 sequence (P35372 whole entry): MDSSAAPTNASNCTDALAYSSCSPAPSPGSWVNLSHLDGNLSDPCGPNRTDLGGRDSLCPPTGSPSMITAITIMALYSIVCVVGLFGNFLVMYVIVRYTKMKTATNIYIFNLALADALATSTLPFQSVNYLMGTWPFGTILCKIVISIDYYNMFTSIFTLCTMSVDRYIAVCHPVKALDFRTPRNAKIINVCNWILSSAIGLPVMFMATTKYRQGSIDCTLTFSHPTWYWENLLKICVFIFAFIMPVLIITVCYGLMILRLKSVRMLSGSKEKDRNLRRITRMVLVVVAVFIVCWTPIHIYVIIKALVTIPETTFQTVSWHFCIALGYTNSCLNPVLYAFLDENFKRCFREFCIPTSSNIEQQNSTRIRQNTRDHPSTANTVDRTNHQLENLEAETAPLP
# T2 sequence (P41145 whole entry): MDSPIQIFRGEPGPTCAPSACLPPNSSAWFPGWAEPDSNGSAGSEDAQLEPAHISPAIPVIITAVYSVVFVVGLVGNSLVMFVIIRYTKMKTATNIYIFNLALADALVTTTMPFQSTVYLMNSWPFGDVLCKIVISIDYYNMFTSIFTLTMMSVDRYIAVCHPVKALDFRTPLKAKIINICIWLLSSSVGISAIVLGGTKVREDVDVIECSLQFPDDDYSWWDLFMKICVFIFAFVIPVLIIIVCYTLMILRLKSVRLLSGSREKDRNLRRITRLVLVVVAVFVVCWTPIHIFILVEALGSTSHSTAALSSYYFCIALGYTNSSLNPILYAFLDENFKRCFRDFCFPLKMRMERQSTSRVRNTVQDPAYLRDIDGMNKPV
smiles,measurement,setting,value
"CC(=N)NCCCN1CC[C@]23c4c5ccc(O)c4O[C@H]2[C@@H](O)C=CC3[C@H]1C5 (stereo partly drawn) [KRS-6-41, (5α,6α)-7,8-didehydro-4,5-epoxy-17-(3-acetamidinopropyl)morphinan, 3,6-diol]","No. of Writhings, Average",ICR mice [1]; 1 mg/kg IP,14
same,"No. of Writhings, Individual",ICR mice [1]; 1 mg/kg IP,12 and 15 and 14
same,% Inhibition,ICR mice [1]; 1 mg/kg IP,0%
same,"No. of Writhings, Average",ICR mice [1]; 2 mg/kg IP,14
same,"No. of Writhings, Individual",ICR mice [1]; 2 mg/kg IP,14 and 6 and 22
same,% Inhibition,ICR mice [1]; 2 mg/kg IP,0%
same,"No. of Writhings, Average",ICR mice [1]; 4 mg/kg IP,12
same,"No. of Writhings, Individual",ICR mice [1]; 4 mg/kg IP,14 and 8 and 15
same,% Inhibition,ICR mice [1]; 4 mg/kg IP,8%
same,"No. of Writhings, Average",ICR mice [1]; 8 mg/kg IP,10
same,"No. of Writhings, Individual",ICR mice [1]; 8 mg/kg IP,6 and 10 and 14
same,% Inhibition,ICR mice [1]; 8 mg/kg IP,23%
same,"No. of Writhings, Average",ICR mice [1]; 16 mg/kg IP,9
same,"No. of Writhings, Individual",ICR mice [1]; 16 mg/kg IP,5 and 16 and 6
same,% Inhibition,ICR mice [1]; 16 mg/kg IP,31%
same,"No. of Writhings, Average",ICR mice [1]; 32 mg/kg IP,8
same,"No. of Writhings, Individual",ICR mice [1]; 32 mg/kg IP,4 and 10 and 11
same,% Inhibition,ICR mice [1]; 32 mg/kg IP,38%
same,"No. of Writhings, Individual",ICR mice [1]; 64 mg/kg IP,4 and 14 and died
same,"No. of Writhings, Individual",ICR mice [1]; 128 mg/kg IP,died
same,inhibition of writhing (in words),"ICR mice [1]; at doses of 32, 16, 8 and 4 mg/kg IP",a moderate level of inhibition of writhing
same,test animals died,ICR mice [2]; 64 mg/kg IP,1 of 3
same,test animals died,ICR mice [2]; 128 mg/kg IP,3 of 3
same,inhibition at 10 µM,human δ-opiate receptor,68%
same,inhibition at 10 µM,human κ-opiate receptor,58%
same,inhibition at 10 µM,human μ-opiate receptor,97%
same,Straub tail behaviour,ICR mice [3],None exhibited Straub tail behaviour
"CN1CC[C@]23c4c5ccc(O)c4O[C@H]2[C@@H](O)C=C[C@H]3[C@H]1C5 [Morphine, reference compound]","No. of Writhings, Average",ICR mice [1]; 3 mg/kg IP,0
same,"No. of Writhings, Individual",ICR mice [1]; 3 mg/kg IP,0
same,% Inhibition,ICR mice [1]; 3 mg/kg IP,100%
same,test animals exhibiting Straub tail phenomenon,ICR mice [3]; 3 mg/kg IP,2 of 3
"CCC(=Nc1ccccc1)NCCCN1CC[C@]23c4c5ccc(O)c4O[C@H]2[C@@H](O)C=CC3[C@H]1C5 (stereo partly drawn) [KRS-6-48, (5α,6α)-7,8-didehydro-4,5-epoxy-17-((N-phenylpropionamidino)-propyl)morphinan, 3,6-diol]","No. of Writhings, Average",ICR mice [1]; 1 mg/kg IP,14
same,"No. of Writhings, Individual",ICR mice [1]; 1 mg/kg IP,10 and 20 and 13
same,% Inhibition,ICR mice [1]; 1 mg/kg IP,0%
same,"No. of Writhings, Average",ICR mice [1]; 2 mg/kg IP,13
same,"No. of Writhings, Individual",ICR mice [1]; 2 mg/kg IP,8 and 20 and 10
same,% Inhibition,ICR mice [1]; 2 mg/kg IP,0%
same,"No. of Writhings, Average",ICR mice [1]; 4 mg/kg IP,9
same,"No. of Writhings, Individual",ICR mice [1]; 4 mg/kg IP,10 and 8 and 9
same,% Inhibition,ICR mice [1]; 4 mg/kg IP,31%
same,"No. of Writhings, Average",ICR mice [1]; 8 mg/kg IP,7
same,"No. of Writhings, Individual",ICR mice [1]; 8 mg/kg IP,12 and 4 and 5
same,% Inhibition,ICR mice [1]; 8 mg/kg IP,46%
same,"No. of Writhings, Average",ICR mice [1]; 16 mg/kg IP,6
same,"No. of Writhings, Individual",ICR mice [1]; 16 mg/kg IP,1 and 13 and 4
same,% Inhibition,ICR mice [1]; 16 mg/kg IP,54%
same,"No. of Writhings, Average",ICR mice [1]; 32 mg/kg IP,1
same,"No. of Writhings, Individual",ICR mice [1]; 32 mg/kg IP,0 and 1 (2×)
same,% Inhibition,ICR mice [1]; 32 mg/kg IP,92%
same,"No. of Writhings, Average",ICR mice [1]; 64 mg/kg IP,0
same,"No. of Writhings, Individual",ICR mice [1]; 64 mg/kg IP,0
same,% Inhibition,ICR mice [1]; 64 mg/kg IP,100%
same,"No. of Writhings, Average",ICR mice [1]; 128 mg/kg IP,0
same,"No. of Writhings, Individual",ICR mice [1]; 128 mg/kg IP,0
same,% Inhibition,ICR mice [1]; 128 mg/kg IP,100%
same,analgesic activity in writhing model (in words),"ICR mice [1]; at doses of 128, 64, 32 and 16 mg/kg IP",Very significant activity
same,inhibition at 10 µM,human δ-opiate receptor,29%
same,inhibition at 10 µM,human κ-opiate receptor,48%
same,inhibition at 10 µM,human μ-opiate receptor,97%
same,Straub tail behaviour,ICR mice [3],did not exhibit Straub tail behaviour
CCC(=Nc1ccc(F)cc1)NCCCN1CC[C@]23c4c5ccc(O)c4O[C@H]2[C@@H](O)C=C[C@H]3[C@H]1C5 [KRS-6-98],"Number of Writhings, Average",ICR mice [4]; 1 mg/kg IP,10
same,"Number of Writhings, Individual",ICR mice [4]; 1 mg/kg IP,12 and 10 and 8
same,% Inhibition,ICR mice [4]; 1 mg/kg IP,44%
same,"Number of Writhings, Average",ICR mice [4]; 2 mg/kg IP,7
same,"Number of Writhings, Individual",ICR mice [4]; 2 mg/kg IP,7 (2×) and 6
same,% Inhibition,ICR mice [4]; 2 mg/kg IP,61%
same,"Number of Writhings, Average",ICR mice [4]; 4 mg/kg IP,7
same,"Number of Writhings, Individual",ICR mice [4]; 4 mg/kg IP,10 and 7 and 4
same,% Inhibition,ICR mice [4]; 4 mg/kg IP,61%
same,"Number of Writhings, Average",ICR mice [4]; 8 mg/kg IP,5
same,"Number of Writhings, Individual",ICR mice [4]; 8 mg/kg IP,6 and 7 and 2
same,% Inhibition,ICR mice [4]; 8 mg/kg IP,72%
same,"Number of Writhings, Average",ICR mice [4]; 16 mg/kg IP,4
same,"Number of Writhings, Individual",ICR mice [4]; 16 mg/kg IP,3 and 6 and 4
same,% Inhibition,ICR mice [4]; 16 mg/kg IP,78%
same,"Number of Writhings, Average",ICR mice [4]; 32 mg/kg IP,0
same,"Number of Writhings, Individual",ICR mice [4]; 32 mg/kg IP,0
same,% Inhibition,ICR mice [4]; 32 mg/kg IP,100%
same,"Number of Writhings, Average",ICR mice [4]; 64 mg/kg IP,0
same,"Number of Writhings, Individual",ICR mice [4]; 64 mg/kg IP,0
same,% Inhibition,ICR mice [4]; 64 mg/kg IP,100%
same,"Number of Writhings, Average",ICR mice [4]; 128 mg/kg IP,0
same,"Number of Writhings, Individual",ICR mice [4]; 128 mg/kg IP,0
same,% Inhibition,ICR mice [4]; 128 mg/kg IP,100%
same,analgesic activity in writhing model (in words),ICR mice [4]; at all dose levels from 128 down to 2 mg/kg IP,significant activity

# Reference: patent publication US20060111381A1, “Amidine compounds” (priority 2002, published 2006)
